As usually defined, the EC50 is the midpoint of the concentration-response curve.

Where a name gives a salt, the structure may show the parent alone.

In the assay the test system is recombinant NL4-3 virus (Renilla luciferase, Gag P373S). Nature of the assay: HIV cell culture assay (luciferase reporter, MT-2 cells). In kind it is cell-based. Conditions: Renilla, NL43, MT-2 cells infected for 4-5 days with NLRluc recombinants; luciferase activity. The protocol:
MT-2 cells and 293T cells were obtained from the NIH AIDS Research and Reference Reagent Program. MT-2 cells were propagated in RPMI 1640 media supplemented with 10% heat inactivated fetal bovine serum, […]. The 293T cells were propagated in DMEM media supplemented with 10% heat inactivated fetal bovine serum (FBS), 100 units/ml penicillin G and 100 μg/ml streptomycin. The proviral DNA clone of NL4-3 was obtained from the NIH AIDS Research and Reference Reagent Program. A recombinant NL4-3 virus, in which a section of the nef gene from NL4-3 was replaced with the Renilla luciferase gene, was used as a reference virus. In addition, residue Gag P373 was converted to P373S. Briefly, the recombinant virus was prepared by transfection of the altered proviral clone of NL4-3. Transfections were performed in 293T cells using LipofectAMINE PLUS from Invitrogen (Carlsbad, Calif.), according to manufacturer's instruction. The virus was titered in MT-2 cells using luciferase enzyme activity as a marker. Luciferase was quantitated using the Dual Luciferase kit from Promega (Madison, Wis.), with modifications to the manufacturer's protocol. The diluted Passive Lysis solution was pre-mixed with the re-suspended Luciferase Assay Reagent and the re-suspended Stop & Glo Substrate (2:1:1 ratio). Fifty (50) μL of the mixture was added to each aspirated well on assay plates and luciferase activity was measured immediately on a Wallac TriLux (Perkin-Elmer). Antiviral activities of inhibitors toward the recombinant virus were quantified by measuring luciferase activity in cells infected for 4-5 days with NLRluc recombinants in the presence serial dilutions of the inhibitor.
A general note: In a reporter assay the amount or activity of a reporter protein is the signal.
On to `C=C(C)[C@@H]1CC[C@]2(NCCN3CCC(S(C)(=O)=O)CC3)CC[C@]3(C)[C@H](CC[C@@H]4[C@@]5(C)CC=C(C6=CC[C@@H](C(=O)O)CC6)C(C)(C)[C@@H]5CC[C@]43C)[C@@H]12` [Example 16, (S)-4-((1R,3aS,5aR,5bR,7aR,11aS,11bR,13aR,13bR)-5a,5b,8,8,11a-pentamethyl-3a-((2-(4-(methylsulfonyl)piperidin-1-yl)ethyl)amino)-1-(prop-1-en-2-yl)-2,3,3a,4,5,5a,5b,6,7,7a,8,11,11a,11b,12,13,13a,13b-octadecahydro-1H-cyclopenta[a]chrysen-9-yl)cyclohex-3-enecarboxylic acid, TFA], for which the EC50 was determined as 3.05 nM. With `C=C(C)[C@@H]1CC[C@]2(N)CC[C@]3(C)[C@H](CC[C@@H]4[C@@]5(C)CC=C(C6=CCC(C(=O)O)CC6)C(C)(C)[C@@H]5CC[C@]43C)[C@@H]12` (stereo partly drawn) [Example 17, 4-((1R,3aS,5aR,5bR,7aR,11aS,11bR,13aR,13bR)-3a-amino-5a,5b,8,8,11a-pentamethyl-1-(prop-1-en-2-yl)-2,3,3a,4,5,5a,5b,6,7,7a,8,11,11a,11b,12,13,13a,13b-octadecahydro-1H-cyclopenta[a]chrysen-9-yl)cyclohex-3-enecarboxylic acid, HCl] the figure was 0.877 nM; with `C=C(C)[C@@H]1CC[C@]2(NCCO)CC[C@]3(C)[C@H](CC[C@@H]4[C@@]5(C)CC=C(C6=CCC(C(=O)O)CC6)C(C)(C)[C@@H]5CC[C@]43C)[C@@H]12` (stereo partly drawn) [Example 18, 4-((1R,3aS,5aR,5bR,7aR,11aS,11bR,13aR,13bR)-3a-((2-hydroxyethyl)amino)-5a,5b,8,8,11a-pentamethyl-1-(prop-1-en-2-yl)-2,3,3a,4,5,5a,5b,6,7,7a,8,11,11a,11b,12,13,13a,13b-octadecahydro-1H-cyclopenta[a]chrysen-9-yl)cyclohex-3-enecarboxylic acid, TFA], 1.38 nM; with `C=C(C)[C@@H]1CC[C@]2(NCCO)CC[C@]3(C)[C@H](CC[C@@H]4[C@@]5(C)CC=C(C6=CC[C@H](C(=O)O)CC6)C(C)(C)[C@@H]5CC[C@]43C)[C@@H]12` [Example 19, (R)-4-((1R,3aS,5aR,5bR,7aR,11aS,11bR,13aR,13bR)-3a-((2-hydroxyethyl)amino)-5a,5b,8,8,11a-pentamethyl-1-(prop-1-en-2-yl)-2,3,3a,4,5,5a,5b,6,7,7a,8,11,11a,11b,12,13,13a,13b-octadecahydro-1H-cyclopenta[a]chrysen-9-yl)cyclohex-3-enecarboxylic acid, TFA], 1.14 nM. As to `C=C(C)[C@@H]1CC[C@]2(NCCO)CC[C@]3(C)[C@H](CC[C@@H]4[C@@]5(C)CC=C(C6=CC[C@@H](C(=O)O)CC6)C(C)(C)[C@@H]5CC[C@]43C)[C@@H]12` [Example 20, (S)-4-((1R,3aS,5aR,5bR,7aR,11aS,11bR,13aR,13bR)-3a-((2-hydroxyethyl)amino)-5a,5b,8,8,11a-pentamethyl-1-(prop-1-en-2-yl)-2,3,3a,4,5,5a,5b,6,7,7a,8,11,11a,11b,12,13,13a,13b-octadecahydro-1H-cyclopenta[a]chrysen-9-yl)cyclohex-3-enecarboxylic acid, TFA], the EC50 is 1.57 nM. Turning to `C=C(C)[C@@H]1CC[C@]2(NCCN3CCS(=O)(=O)CC3)CC[C@]3(C)[C@H](CC[C@@H]4[C@@]5(C)CC=C(C6=CCC(C(=O)NS(C)(=O)=O)CC6)C(C)(C)[C@@H]5CC[C@]43C)[C@@H]12` (stereo partly drawn) [Example 21, 4-((1R,3aS,5aR,5bR,7aR,11aS,11bR,13aR,13bR)-3a-((2-(1,1-dioxidothiomorpholino)ethyl)amino)-5a,5b,8,8,11a-pentamethyl-1-(prop-1-en-2-yl)-2,3,3a,4,5,5a,5b,6,7,7a,8,11,11a,11b,12,13,13a,13b-octadecahydro-1H-cyclopenta[a]chrysen-9-yl)-N-(methylsulfonyl)cyclohex-3-enecarboxamide, TFA], the EC50 came to 1.8 nM. With `C=C(C)[C@@H]1CC[C@]2(NC(=O)OC(C)(C)C)CC[C@]3(C)[C@H](CC[C@@H]4[C@@]5(C)CC=C(C6=CC7(C6)CC(C(=O)O)(C(=O)O)C7)C(C)(C)[C@@H]5CC[C@]43C)[C@@H]12` [Example A1, 6-((1R,3aS,5aR,5bR,7aR,11aS,11bR,13aR,13bR)-3a-((tert-butoxycarbonyl)amino)-5a,5b,8,8,11a-pentamethyl-1-(prop-1-en-2-yl)-2,3,3a,4,5,5a,5b,6,7,7a,8,11,11a,11b,12,13,13a,13b-octadecahydro-1H-cyclopenta[a]chrysen-9-yl)spiro[3.3]hept-5-ene-2,2-dicarboxylic acid] the figure was 570 nM. Then `C=C(C)[C@@H]1CC[C@]2(NCCN(c3ccccc3)S(=O)(=O)C(F)(F)F)CC[C@]3(C)[C@H](CC[C@@H]4[C@@]5(C)CC=C(C6=CC7(C6)CC(C(=O)O)(C(=O)O)C7)C(C)(C)[C@@H]5CC[C@]43C)[C@@H]12` [Example A2, 6-((1R,3aS,5aR,5bR,7aR,11aS,11bR,13aR,13bR)-5a,5b,8,8,11a-pentamethyl-1-(prop-1-en-2-yl)-3a-((2-(1,1,1-trifluoro-N-phenylmethylsulfonamido)ethyl)amino)-2,3,3a,4,5,5a,5b,6,7,7a,8,11,11a,11b,12,13,13a,13b-octadecahydro-1H-cyclopenta[a]chrysen-9-yl)spiro[3.3]hept-5-ene-2,2-dicarboxylic acid], with 1070 nM; and `C=C(C)[C@@H]1CC[C@]2(NCCN(c3ccc(Cl)cn3)S(=O)(=O)C(F)(F)F)CC[C@]3(C)[C@H](CC[C@@H]4[C@@]5(C)CC=C(C6=CC7(C6)CC(C(=O)O)(C(=O)O)C7)C(C)(C)[C@@H]5CC[C@]43C)[C@@H]12` [Example A3, 6-((1R,3 aS,5aR,5bR,7aR,11aS,11bR,13 aR,13bR)-3a-((2-(N-(5-chloropyridin-2-yl)-1,1,1-trifluoromethylsulfonamido)ethyl)amino)-5a,5b,8,8,11a-pentamethyl-1-(prop-1-en-2-yl)-2,3,3a,4,5,5a,5b,6,7,7a,8,11,11a,11b,12,13,13a,13b-octadecahydro-1H-cyclopenta[a]chrysen-9-yl)spiro[3.3]hept-5-ene-2,2-dicarboxylic acid], with 1750 nM. With `C=C(C)[C@@H]1CC[C@]2(NCCN3CCOCC3)CC[C@]3(C)[C@H](CC[C@@H]4[C@@]5(C)CC=C(C6=CC7(C6)CC(C(=O)O)(C(=O)O)C7)C(C)(C)[C@@H]5CC[C@]43C)[C@@H]12` [Example A4, 6-((1R,3aS,5aR,5bR,7aR,11aS,11bR,13aR,13bR)-5a,5b,8,8,11a-pentamethyl-3a-((2-morpholinoethyl)amino)-1-(prop-1-en-2-yl)-2,3,3a,4,5,5a,5b,6,7,7a,8,11,11a,11b,12,13,13a,13b-octadecahydro-1H-cyclopenta[a]chrysen-9-yl)spiro[3.3]hept-5-ene-2,2-dicarboxylic acid] the figure was 100 nM.

The values are drawn from patent US8906889B2, “C-3 cycloalkenyl triterpenoids with HIV maturation inhibitory activity” (priority 2012, dated 2014).
